Where two headings read alike, the source gives them in different places.
How the values were obtained:
Assay type in all cases: in vivo
[1] = test system: Surinam grass (Brachiaria decumbens); test: Test B pre/postemergence; conditions: Urochloa decumbens; for pest or weed control at 4 g/ha: 4 g ai/ha; for pest or weed control at 62 g/ha: 62 g ai/ha
In short: (§1)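 Scores reflect visual comparison with untreated controls, where 0 means no effect and 100 complete control. Plants stayed 13 to 15 days in the greenhouse after pre- or postemergence treatment with compounds carried in a non-phytotoxic solvent and surfactant.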

[2] = test system: barnyardgrass (Echinochloa crus-galli); test: Test B pre/postemergence; conditions: Echinochloa crus-galli, scale 0 to 100 (0 no effect, 100 complete control); for pest or weed control at 4 g/ha: 4 g ai/ha; for pest or weed control at 62 g/ha: 62 g ai/ha
In short: as §1

[3] = test system: cocklebur (Xanthium strumarium); test: Test B pre/postemergence; conditions: Xanthium strumarium; for pest or weed control at 4 g/ha: 4 g ai/ha; for pest or weed control at 62 g/ha: 62 g ai/ha
In short: as §1

corn (Zea mays) = test: Test B pre/postemergence; conditions: Zea mays
In short: as §1

[4] = test system: crabgrass (Digitaria sanguinalis); test: Test B pre/postemergence; conditions: Digitaria sanguinalis; for pest or weed control at 4 g/ha: 4 g ai/ha; for pest or weed control at 62 g/ha: 62 g ai/ha
In short: as §1

[5] = test system: giant foxtail (Setaria faberii); test: Test B pre/postemergence; conditions: Setaria faberi; for pest or weed control at 4 g/ha: 4 g ai/ha; for pest or weed control at 62 g/ha: 62 g ai/ha
In short: as §1

[6] = test system: lambsquarters (Chenopodium album); test: Test B pre/postemergence; conditions: Chenopodium album; for pest or weed control at 4 g/ha: 4 g ai/ha; for pest or weed control at 62 g/ha: 62 g ai/ha
In short: as §1

[7] = test system: morningglory (Ipomoea coccinea); test: Test B pre/postemergence; conditions: Ipomoea; for pest or weed control at 4 g/ha: 4 g ai/ha; for pest or weed control at 62 g/ha: 62 g ai/ha
In short: as §1

[8] = test system: pigweed (Amaranthus retroflexus); test: Test B pre/postemergence; conditions: Amaranthus retroflexus; for pest or weed control at 4 g/ha: 4 g ai/ha; for pest or weed control at 62 g/ha: 62 g ai/ha
In short: as §1

[9] = test system: velvetleaf (Abutilon theophrasti); test: Test B pre/postemergence; conditions: Abutilon theophrasti; for pest or weed control at 4 g/ha: 4 g ai/ha; for pest or weed control at 62 g/ha: 62 g ai/ha
In short: as §1

[10] = test system: wheat (Triticum aestivum); test: Test B pre/postemergence; conditions: Triticum aestivum, scale 0 to 100 (0 no effect, 100 complete control); for plant injury at 4 g/ha: 4 g ai/ha; for plant injury at 62 g/ha: 62 g ai/ha
In short: as §1

[11] = test system: blackgrass (Alopecurus myosuroides); test: Test B postemergence; conditions: Alopecurus myosuroides, post-emergence, scale 0 to 100 (0 no effect, 100 complete control), read-out: Blackgrass plant response rating
In short: as §1

wild oat (Avena fatua) = test: Test B postemergence; conditions: Avena fatua, post-emergence, scale 0 to 100 (0 no effect, 100 complete control), read-out: Oat, Wild plant response rating
In short: as §1

[12] = post-emergence, Postemergence, scale 0 to 100 (0 no effect, 100 complete control), read-out: Surinam Grass plant response rating
[13] = post-emergence, Postemergence, read-out: Barnyardgrass plant response rating
[14] = pre-emergence, Preemergence, read-out: Plant response rating, Barnyardgrass
[15] = post-emergence, Postemergence, scale 0 to 100 (0 no effect, 100 complete control), read-out: Cocklebur plant response rating
[16] = post-emergence, Postemergence, scale 0 to 100 (0 no effect, 100 complete control), read-out: Crabgrass plant response rating
[17] = post-emergence, Postemergence, scale 0 to 100 (0 no effect, 100 complete control), read-out: Foxtail, Giant plant response rating
[18] = post-emergence, Postemergence, scale 0 to 100 (0 no effect, 100 complete control), read-out: Lambsquarters plant response rating
[19] = post-emergence, Postemergence, scale 0 to 100 (0 no effect, 100 complete control), read-out: Morningglory plant response rating
[20] = post-emergence, Postemergence, scale 0 to 100 (0 no effect, 100 complete control), read-out: Pigweed plant response rating
[21] = post-emergence, Postemergence, scale 0 to 100 (0 no effect, 100 complete control), read-out: Velvetleaf plant response rating
[22] = post-emergence, Postemergence, read-out: Wheat plant response rating
[23] = pre-emergence, Preemergence, read-out: Plant response rating, Wheat

Nc1nc(-c2ccc(Cl)cc2)nc(C(=O)O)c1Cl [Compound 65, 6-amino-5-chloro-2-(4-chlorophenyl)-4-pyrimidinecarboxylic acid]
pest or weed control at 4 g/ha [1, 12]: 20%
pest or weed control at 62 g/ha [1, 12]: 80%
pest or weed control at 4 g/ha ([1]; pre-emergence, Preemergence, scale 0 to 100 (0 no effect, 100 complete control), read-out: Plant response rating, Surinam Grass): 0%
pest or weed control at 62 g/ha ([1]; pre-emergence, Preemergence, scale 0 to 100, 0 no effect, 100 complete control, read-out: Plant response rating, Surinam Grass): 40%
pest or weed control at 4 g/ha [2, 13]: 20%
pest or weed control at 62 g/ha [2, 13]: 70%
pest or weed control at 4 g/ha [2, 14]: 0%
pest or weed control at 62 g/ha [2, 14]: 40%
pest or weed control at 4 g/ha [3, 15]: 80%
pest or weed control at 62 g/ha [3, 15]: 100%
pest or weed control at 4 g/ha ([3]; pre-emergence, Preemergence, scale 0 to 100 (0 no effect, 100 complete control), read-out: Plant response rating, Cocklebur): 10%
pest or weed control at 62 g/ha ([3]; pre-emergence, Preemergence, scale 0 to 100, 0 no effect, 100 complete control, read-out: Plant response rating, Cocklebur): 80%
plant injury at 4 g/ha (corn (Zea mays); post-emergence, Postemergence, 4 g ai/ha, scale 0 to 100 (0 no effect, 100 complete control), read-out: Corn plant response rating): 10%
plant injury at 62 g/ha (corn (Zea mays); post-emergence, Postemergence, 62 g ai/ha, scale 0 to 100 (0 no effect, 100 complete control), read-out: Corn plant response rating): 80%
Corn plant response rating (crop injury, 0 = no effect, 100 = complete kill) at 4 g/ha (corn (Zea mays); pre-emergence, Preemergence, 4 g ai/ha, scale 0 to 100 (0 no effect, 100 complete control)): 0%
Corn plant response rating (crop injury, 0 = no effect, 100 = complete kill) at 62 g/ha (corn (Zea mays); pre-emergence, Preemergence, 62 g ai/ha, scale 0 to 100, 0 no effect, 100 complete control): 0%
pest or weed control at 4 g/ha [4, 16]: 20%
pest or weed control at 62 g/ha [4, 16]: 80%
pest or weed control at 4 g/ha ([4]; pre-emergence, Preemergence, scale 0 to 100 (0 no effect, 100 complete control), read-out: Plant response rating, Crabgrass): 20%
pest or weed control at 62 g/ha ([4]; pre-emergence, Preemergence, scale 0 to 100, 0 no effect, 100 complete control, read-out: Plant response rating, Crabgrass): 70%
pest or weed control at 4 g/ha [5, 17]: 40%
pest or weed control at 62 g/ha [5, 17]: 70%
pest or weed control at 4 g/ha ([5]; pre-emergence, Preemergence, scale 0 to 100 (0 no effect, 100 complete control), read-out: Plant response rating, Foxtail, Giant): 0%
pest or weed control at 62 g/ha ([5]; pre-emergence, Preemergence, scale 0 to 100, 0 no effect, 100 complete control, read-out: Plant response rating, Foxtail, Giant): 30%
pest or weed control at 4 g/ha [6, 18]: 80%
pest or weed control at 62 g/ha [6, 18]: 100%
pest or weed control at 4 g/ha ([6]; pre-emergence, Preemergence, scale 0 to 100 (0 no effect, 100 complete control), read-out: Plant response rating, Lambsquarters): 30%
pest or weed control at 62 g/ha ([6]; pre-emergence, Preemergence, scale 0 to 100, 0 no effect, 100 complete control, read-out: Plant response rating, Lambsquarters): 90%
pest or weed control at 4 g/ha [7, 19]: 70%
pest or weed control at 62 g/ha [7, 19]: 80%
pest or weed control at 4 g/ha ([7]; pre-emergence, Preemergence, scale 0 to 100 (0 no effect, 100 complete control), read-out: Plant response rating, Morningglory): 0%
pest or weed control at 62 g/ha ([7]; pre-emergence, Preemergence, scale 0 to 100, 0 no effect, 100 complete control, read-out: Plant response rating, Morningglory): 30%
pest or weed control at 4 g/ha [8, 20]: 70%
pest or weed control at 62 g/ha [8, 20]: 100%
pest or weed control at 4 g/ha ([8]; pre-emergence, Preemergence, scale 0 to 100 (0 no effect, 100 complete control), read-out: Plant response rating, Pigweed): 20%
pest or weed control at 62 g/ha ([8]; pre-emergence, Preemergence, scale 0 to 100, 0 no effect, 100 complete control, read-out: Plant response rating, Pigweed): 100%
pest or weed control at 4 g/ha [9, 21]: 50%
pest or weed control at 62 g/ha [9, 21]: 90%
pest or weed control at 4 g/ha ([9]; pre-emergence, Preemergence, scale 0 to 100 (0 no effect, 100 complete control), read-out: Plant response rating, Velvetleaf): 0%
pest or weed control at 62 g/ha ([9]; pre-emergence, Preemergence, scale 0 to 100, 0 no effect, 100 complete control, read-out: Plant response rating, Velvetleaf): 70%
plant injury at 4 g/ha [10, 22]: 0%
plant injury at 62 g/ha [10, 22]: 50%
plant injury at 4 g/ha [10, 23]: 20%
plant injury at 62 g/ha [10, 23]: 80%
pest or weed control at 4 g/ha ([11]; 4 g ai/ha): 20%
pest or weed control at 62 g/ha ([11]; 62 g ai/ha): 70%
pest or weed control at 4 g/ha (wild oat (Avena fatua); 4 g ai/ha): 0%
pest or weed control at 62 g/ha (wild oat (Avena fatua); 62 g ai/ha): 40%
